8 molecules from patent US20090054454A1, “BENZOFURANYL- AND BENZOTHIENYL- PIPERAZINYL QUINOLINES AND METHODS OF THEIR USE” (priority 2007, published 2009) can be followed below.

As a reminder, the Ki is the equilibrium dissociation constant of an inhibitor or competing ligand from its target. Higher therefore signals lower affinity. As a reminder, the melting point is the temperature of the solid-liquid transition.

One data set has as its target Human 5-HT Transporter (Homo sapiens, UniProt P31645). In words: Inhibition of 3H-5-HT Uptake by Cells Possessing the Human 5-HT Transporter (HC 5HT Transporter), Jar cells. The following applies: HC-5HTC Transporter Ki (nM), Jar cells treated with staurosporine.
The next data set has as its target 5-HT transporter (Rattus norvegicus, UniProt P31652). As to the kind of experiment: Rat Brain 3H-Paroxetine Binding Assay (RB 5HT Transporter). The following applies: read-out: RB-5HT Transporter % inhibition @ 1 μM concentration.
The next data set deals with T1, human 5-HT1A receptors (Homo sapiens, UniProt P08908).
T1 construct: expressed in transfected cells; host or cells: CHO cells (stably transfected)
T1 sequence (P08908 1-422): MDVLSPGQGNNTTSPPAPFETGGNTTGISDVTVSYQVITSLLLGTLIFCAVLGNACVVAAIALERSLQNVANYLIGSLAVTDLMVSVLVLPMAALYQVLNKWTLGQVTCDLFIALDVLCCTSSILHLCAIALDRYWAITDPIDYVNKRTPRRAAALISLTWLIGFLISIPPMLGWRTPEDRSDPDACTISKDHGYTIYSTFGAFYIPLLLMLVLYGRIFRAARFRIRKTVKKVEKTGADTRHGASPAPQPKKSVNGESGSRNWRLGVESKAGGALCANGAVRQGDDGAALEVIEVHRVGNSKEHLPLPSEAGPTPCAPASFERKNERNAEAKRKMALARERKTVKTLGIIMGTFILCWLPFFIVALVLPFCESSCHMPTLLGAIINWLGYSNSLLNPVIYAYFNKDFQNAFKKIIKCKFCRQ
As to the kind of experiment: Displacement of [3H] 8-OH-DPAT from the 5-HT1A serotonin receptor. In kind it is binding. The following applies: 1 μM concentration; starred cells of the 5-HT1A column. (In a radioligand displacement assay an active substance lowers the binding of a labelled ligand.)

Human 5-HT Transporter, sequence (P31645 whole entry): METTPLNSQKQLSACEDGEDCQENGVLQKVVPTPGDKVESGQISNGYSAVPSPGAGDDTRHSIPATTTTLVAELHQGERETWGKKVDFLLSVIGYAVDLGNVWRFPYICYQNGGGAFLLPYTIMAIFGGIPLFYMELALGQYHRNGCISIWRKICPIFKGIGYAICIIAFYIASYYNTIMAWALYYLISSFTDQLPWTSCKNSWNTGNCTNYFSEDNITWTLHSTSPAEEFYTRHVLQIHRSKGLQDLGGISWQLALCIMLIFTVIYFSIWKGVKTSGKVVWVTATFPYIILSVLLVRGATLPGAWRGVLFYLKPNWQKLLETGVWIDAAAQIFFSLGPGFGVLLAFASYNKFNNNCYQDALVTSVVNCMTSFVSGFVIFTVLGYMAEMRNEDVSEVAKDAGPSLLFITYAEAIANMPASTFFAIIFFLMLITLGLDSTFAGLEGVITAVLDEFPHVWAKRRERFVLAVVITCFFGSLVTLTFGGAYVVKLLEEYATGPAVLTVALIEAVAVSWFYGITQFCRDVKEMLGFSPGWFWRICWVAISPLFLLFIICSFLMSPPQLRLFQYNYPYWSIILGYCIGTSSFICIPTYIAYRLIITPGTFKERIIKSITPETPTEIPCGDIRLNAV
5-HT transporter, sequence (P31652 whole entry): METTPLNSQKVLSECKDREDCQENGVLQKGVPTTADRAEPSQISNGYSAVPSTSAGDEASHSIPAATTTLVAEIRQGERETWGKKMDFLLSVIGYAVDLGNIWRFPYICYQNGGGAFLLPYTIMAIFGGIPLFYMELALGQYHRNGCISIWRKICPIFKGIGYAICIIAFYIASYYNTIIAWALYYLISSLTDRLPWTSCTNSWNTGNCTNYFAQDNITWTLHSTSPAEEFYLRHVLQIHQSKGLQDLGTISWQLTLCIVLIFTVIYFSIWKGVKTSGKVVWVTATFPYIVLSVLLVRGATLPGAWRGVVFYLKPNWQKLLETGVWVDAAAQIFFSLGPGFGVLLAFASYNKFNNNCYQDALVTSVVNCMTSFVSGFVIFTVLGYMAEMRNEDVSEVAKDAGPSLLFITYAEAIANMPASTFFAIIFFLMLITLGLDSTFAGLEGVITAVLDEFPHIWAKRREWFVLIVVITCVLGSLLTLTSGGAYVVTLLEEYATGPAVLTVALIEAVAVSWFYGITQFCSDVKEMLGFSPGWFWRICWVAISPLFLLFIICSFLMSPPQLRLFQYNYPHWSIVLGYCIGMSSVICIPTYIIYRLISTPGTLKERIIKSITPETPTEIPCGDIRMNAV

Turning to `Clc1cc(N2CCN(CCc3coc4cc(Cl)ccc34)CC2)c2ncccc2c1` [Compound 7, 8-{4-[2-(6-chloro-1-benzofuran-3-yl)ethyl]-1-piperazinyl}-6-chloro-quinoline], at Human 5-HT Transporter, the Ki came out at 2150 nM. Moreover, the inhibition at 1 µM at 5-HT transporter came to 32%.
In the case of `COc1ccc2occ(CCN3CCN(c4cc(C(C)C)cc5cccnc45)CC3)c2c1` [Compound 24, 8-{4-[2-(5-methoxy-1-benzofuran-3-yl)ethyl]-1-piperazinyl}-6-isopropyl-quinoline], the inhibition at 1 µM on human 5-HT1A receptors was 46%; at 5-HT transporter, 24%. The molecule also showed a Ki at Human 5-HT Transporter of 3730 nM.
Turning to `Fc1cc(N2CCN([C@H]3CC[C@@H](c4csc5ccc(F)cc54)CC3)CC2)c2ncccc2c1` [Compound 47, 6-fluoro-8-{4-[4-cis(5-fluoro-1-benzothien-3-yl)cyclohexyl]piperazin-1-yl}quinoline], on Human 5-HT Transporter, the affinity, expressed as Ki, was 3490 nM. On 5-HT transporter, the inhibition at 1 µM was found to be 25%.
For `Fc1ccc2scc([C@H]3CC[C@H](N4CCN(c5ccc(Cl)c6cccnc56)CC4)CC3)c2c1` [Compound 52, 5-chloro-8-{4-[4-trans(5-fluoro-1-benzothien-3-yl)cyclohexyl]piperazin-1-yl}quinoline], the melting point lay in the range of 195 to 197 °C. In addition, the inhibition at 1 µM at human 5-HT1A receptors came to 42%. The molecule further had an inhibitory constant (Ki) at Human 5-HT Transporter of 751 nM.
Consider `COc1cccc2c1occ2[C@H]1CC[C@H](N2CCN(c3cccc4cccnc34)CC2)CC1` [Compound 62, 8-{4-[4-trans(7-methoxy-1-benzofuran-3-yl)cyclohexyl]-1-piperazinyl}quinoline], for which the melting point was in the range of 195 to 197 °C. On Human 5-HT Transporter, this molecule registered a Ki of 38 nM.
For `COc1ccc2occ([C@H]3CC[C@@H](N4CCN(c5cc(F)cc6cccnc56)CC4)CC3)c2c1` [Compound 67, 6-fluoro-8-{4-[4-cis(5-methoxy-1-benzofuran-3-yl)cyclohexyl]piperazin-1-yl}quinoline], in that order: 153 to 160 °C and 1200 nM.
`COc1ccc2occ([C@H]3CC[C@H](N4CCN(c5cc(F)cc6cccnc56)CC4)CC3)c2c1` [Compound 68, 6-fluoro-8-{4-[4-trans(5-methoxy-1-benzofuran-3-yl)cyclohexyl]piperazin-1-yl}quinoline] registered a melting point of 152 to 155 °C. This molecule showed a Ki on Human 5-HT Transporter of 3290 nM.
Turning to `COc1cc(N2CCN([C@H]3CC[C@@H](c4cc5ccccc5s4)CC3)CC2)c2ncccc2c1` [Compound 70], the melting point lay within 184 to 186 °C. Further, on Human 5-HT Transporter, the Ki came out at 3000 nM.
